Brc1cn[nH]c1
solubility (mole fraction)
Conditions | in ethanol | in methanol | in water
283.15 K | 0.265 | 0.203 | 0.0048
285.65 K | 0.275 | 0.218 | 0.00501
288.15 K | 0.287 | 0.234 | 0.00532
290.65 K | 0.299 | 0.252 | 0.00562
293.15 K | 0.311 | 0.27 | 0.00591
295.65 K | 0.325 | 0.292 | 0.00623
298.15 K | 0.339 | 0.312 | 0.0066
300.65 K | 0.354 | 0.333 | 0.00696
303.15 K | 0.372 | 0.355 | 0.00733
305.65 K | 0.39 | 0.379 | 0.00772
308.15 K | 0.409 | 0.402 | 0.00809
310.65 K | 0.431 | 0.426 | 0.00848
313.15 K | 0.457 | 0.452 | 0.00895
315.65 K | 0.481 | 0.479 | 0.00941
318.15 K | 0.506 | 0.503 | 0.00987
